Source: patent US20240025856A1, “1,2,3,4-TETRAHYDROQUINOLINE DERIVATIVES AS INHIBITORS OF THE YAP/TAZ-TEAD ACTIVATION FOR TREATING CANCER” (KATHOLIEKE UNIVERSITEIT LEUVEN, priority 2020, published 2024)

Test system: YAP/TAZ-TEAD transcription
Experiment: Reporter gene assay for measuring the inhibition of YAP/TAZ-TEAD transcription (TEAD-responsive element luciferase reporter in Hek293T cells)
Type: cell-based
Settings: Homo sapiens, HEK-293T, 24 h, Hek293T cells transiently transfected with TEAD-responsive element luciferase reporter; 24 hours incubation
Outline: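 Hek293T cells transiently transfected with a TEAD-responsive element luciferase reporter, plated onto pre-diluted compounds and incubated 24 h at 37 °C/5% CO2. Luminescence read after SteadyLite addition; % inhibition from RLU relative to vehicle (0%) and a positive control inhibitor (100%), giving IC50.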

CC(C)=CC(=O)NCC1Cc2ccccc2N(c2ccc(C(F)(F)F)cc2)C1 (stereo not drawn) [compound 099, 3-methyl-N-((1-(4-(trifluoromethyl)phenyl)-1,2,3,4-tetrahydroquinolin-3-yl)methyl)but-2-enamide]
IC50: 1000 to 20000 nM

C=CC(=O)NCC1Cc2ccccc2N(c2ccc(C(=O)NC)cc2)C1 (stereo not drawn) [compound 100, 4-(3-(acrylamidomethyl)-3,4-dihydroquinolin-1(2H)-yl)—N-methylbenzamide]
IC50: > 20000 nM

C=CC(=O)NCC1Cc2ccccc2N(c2ccc(F)c(F)c2)C1 (stereo not drawn) [compound 101, N-((1-(3,4-difluorophenyl)-1,2,3,4-tetrahydroquinolin-3-yl)methyl)acrylamide]
IC50: < 1000 nM

C=CC(=O)NCC1Cc2ccccc2N(c2ccc(F)cc2F)C1 (stereo not drawn) [compound 102, N-((1-(2,4-difluorophenyl)-1,2,3,4-tetrahydroquinolin-3-yl)methyl)acrylamide]
IC50: < 1000 nM

C=CC(=O)NCC1Cc2ccccc2N(c2ccc3cc[nH]c3c2)C1 (stereo not drawn) [compound 104, N-((1-(1H-indol-6-yl)-1,2,3,4-tetrahydroquinolin-3-yl)methyl)acrylamide]
IC50: < 1000 nM

C=CC(=O)NCC1Cc2ccccc2N(c2ccc(C(F)F)cc2)C1 (stereo not drawn) [compound 105, N-((1-(4-(difluoromethyl)phenyl)-1,2,3,4-tetrahydroquinolin-3-yl)methyl)acrylamide]
IC50: < 1000 nM

C=CC(=O)NCC1Cc2ccccc2N(c2ccc(OC(F)(F)F)cc2)C1 (stereo not drawn) [compound 106, N-((1-(4-(trifluoromethoxy)phenyl)-1,2,3,4-tetrahydroquinolin-3-yl)methyl)acrylamide]
IC50: < 1000 nM

C=CC(=O)NCC1Cc2ccccc2N(c2ccc(OC(F)F)cc2)C1 (stereo not drawn) [compound 107, N-((1-(4-(difluoromethoxy)phenyl)-1,2,3,4-tetrahydroquinolin-3-yl)methyl)acrylamide]
IC50: < 1000 nM

C=CC(=O)NCC1Cc2ccccc2N(c2cccc(F)c2)C1 (stereo not drawn) [compound 108, N-((1-(3-fluorophenyl)-1,2,3,4-tetrahydroquinolin-3-yl)methyl)acrylamide]
IC50: < 1000 nM

C=CC(=O)NCC1Cc2ccccc2N(c2cccc(F)c2F)C1 (stereo not drawn) [compound 109, N-((1-(2,3-difluorophenyl)-1,2,3,4-tetrahydroquinolin-3-yl)methyl)acrylamide]
IC50: < 1000 nM

C=CC(=O)NCC1Cc2ccccc2N(c2cc(F)ccc2F)C1 (stereo not drawn) [compound 110, N-((1-(2,5-difluorophenyl)-1,2,3,4-tetrahydroquinolin-3-yl)methyl)acrylamide]
IC50: < 1000 nM

C=CC(=O)NCC1Cc2ccccc2N(c2cc(F)cc(F)c2)C1 (stereo not drawn) [compound 111, N-((1-(3,5-difluorophenyl)-1,2,3,4-tetrahydroquinolin-3-yl)methyl)acrylamide]
IC50: < 1000 nM

C=CC(=O)NCC1Cc2ccccc2N(c2ccc(C(F)(F)F)c(F)c2)C1 (stereo not drawn) [compound 112, N-((1-(3-fluoro-4-(trifluoromethyl)phenyl)-1,2,3,4-tetrahydroquinolin-3-yl)methyl)acrylamide]
IC50: < 1000 nM

C=CC(=O)NCC1Cc2ccccc2N(c2ccc(SC(F)(F)F)cc2)C1 (stereo not drawn) [compound 114, N-((1-(4-((trifluoromethyl)thio)phenyl)-1,2,3,4-tetrahydroquinolin-3-yl)methyl)acrylamide]
IC50: < 1000 nM

C=CC(=O)NCC1Cc2ccccc2N(c2cnc(C(F)(F)F)nc2)C1 (stereo not drawn) [compound 115, N-((1-(2-(trifluoromethyl)pyrimidin-5-yl)-1,2,3,4-tetrahydroquinolin-3-yl)methyl)acrylamide]
IC50: < 1000 nM

C=CC(=O)NCC1Cc2ccccc2N(c2ccc(C)cc2C)C1 (stereo not drawn) [compound 116, N-((1-(2,4-dimethylphenyl)-1,2,3,4-tetrahydroquinolin-3-yl)methyl)acrylamide]
IC50: < 1000 nM

C=CC(=O)NCC1Cc2ccccc2N(c2ccc(S(F)(F)(F)(F)F)cc2)C1 (stereo not drawn) [compound 117, N-((1-(4-(pentafluoro-λ^6-sulfaneyl)phenyl)-1,2,3,4-tetrahydroquinolin-3-yl)methyl)acrylamide]
IC50: < 1000 nM

C=CC(=O)NCC1Cc2ccccc2N(C2CCCCC2)C1 (stereo not drawn) [compound 118, N-((1-cyclohexyl-1,2,3,4-tetrahydroquinolin-3-yl)methyl)acrylamide]
IC50: < 1000 nM

C#CC(=O)NCC1Cc2ccccc2N(c2ccc(C(F)(F)F)cc2)C1 (stereo not drawn) [compound 119, N-((1-(4-(trifluoromethyl)phenyl)-1,2,3,4-tetrahydroquinolin-3-yl)methyl)propiolamide]
IC50: < 1000 nM

CN(C)C/C=C/C(=O)NCC1Cc2ccccc2N(c2ccc(C(F)(F)F)cc2)C1 (stereo not drawn) [compound 120, (E)-4-(dimethylamino)-N-((1-(4-(trifluoromethyl)phenyl)-1,2,3,4-tetrahydroquinolin-3-yl)methyl)but-2-enamide]
IC50: < 1000 nM

CS(=O)(=O)NCC1Cc2ccccc2N(c2ccc(C(F)(F)F)cc2)C1 (stereo not drawn) [compound 121, N-((1-(4-(trifluoromethyl)phenyl)-1,2,3,4-tetrahydroquinolin-3-yl)methyl)methanesulfonamide]
IC50: < 1000 nM

C=CS(=O)(=O)NCC1Cc2ccccc2N(c2ccc(C(F)(F)F)cc2)C1 (stereo not drawn) [compound 122, N-((1-(4-(trifluoromethyl)phenyl)-1,2,3,4-tetrahydroquinolin-3-yl)methyl)ethenesulfonamide]
IC50: < 1000 nM

O=S1(=O)CCN1CC1Cc2ccccc2N(c2ccc(C(F)(F)F)cc2)C1 (stereo not drawn) [compound 123, 2-((1-(4-(trifluoromethyl)phenyl)-1,2,3,4-tetrahydroquinolin-3-yl)methyl)-1,2-thiazetidine-1,1-dioxide]
IC50: < 1000 nM

CNS(=O)(=O)CCNCC1Cc2ccccc2N(c2ccc(C(F)(F)F)cc2)C1 (stereo not drawn) [compound 124, N-methyl-2-(((1-(4-(trifluoromethyl)phenyl)-1,2,3,4-tetrahydroquinolin-3-yl)methyl)amino)ethane-1-sulfonamide]
IC50: 1000 to 20000 nM

N#CCC(=O)NCC1Cc2ccccc2N(c2ccc(C(F)(F)F)cc2)C1 (stereo not drawn) [compound 125, 2-cyano-N-((1-(4-(trifluoromethyl)phenyl)-1,2,3,4-tetrahydroquinolin-3-yl)methyl)acetamide]
IC50: < 1000 nM

N#CCCNCC1Cc2ccccc2N(c2ccc(C(F)(F)F)cc2)C1 (stereo not drawn) [compound 126, 3-(((1-(4-(trifluoromethyl)phenyl)-1,2,3,4-tetrahydroquinolin-3-yl)methyl)amino)propanenitrile]
IC50: 1000 to 20000 nM

N#CCNCC1Cc2ccccc2N(c2ccc(C(F)(F)F)cc2)C1 (stereo not drawn) [compound 127, 2-(((1-(4-(trifluoromethyl)phenyl)-1,2,3,4-tetrahydroquinolin-3-yl)methyl)amino)acetonitrile]
IC50: < 1000 nM

C=CC(=O)NCC1Cc2c(Cc3ccccc3)cccc2N(c2ccc(C(F)(F)F)cc2)C1 (stereo not drawn) [compound 129, N-((5-benzyl-1-(4-(trifluoromethyl)phenyl)-1,2,3,4-tetrahydroquinolin-3-yl)methyl)acrylamide]
IC50: < 1000 nM

CCC(=O)NCC1Cc2c(Cc3ccccc3)cccc2N(c2ccc(C(F)(F)F)cc2)C1 (stereo not drawn) [compound 130, N-((5-benzyl-1-(4-(trifluoromethyl)phenyl)-1,2,3,4-tetrahydroquinolin-3-yl)methyl)propionamide]
IC50: < 1000 nM

C=CC(=O)NCC1Cc2cc(OC)ccc2N(c2ccc(C(F)(F)F)cc2)C1 (stereo not drawn) [compound 131, N-((6-methoxy-1-(4-(trifluoromethyl)phenyl)-1,2,3,4-tetrahydroquinolin-3-yl)methyl)acrylamide]
IC50: < 1000 nM
